Results published in article PMC10285254, “The FAM86 domain of FAM86A confers substrate specificity to promote EEF2-Lys525 methylation” (The Journal of Biological Chemistry, 2023).
Changes are numbered by the printed parent chain.

Key:
FAM86A [1] = molecular target: T1, FAM86A (Homo sapiens, UniProt Q96G04); experiment: in vitro methylation, autoradiography; assay type: biochemical; details: labelled compound; methyl donor; co-substrate recombinant human EEF2 (Lys525); Tris-HCl pH 8.0, 20 mM KCl, 5 mM MgCl2, 10% glycerol, 30 C overnight
T1 construct: gene EEF2KMT; full-length; E. coli BL21
T1 sequence (Q96G04 1-330): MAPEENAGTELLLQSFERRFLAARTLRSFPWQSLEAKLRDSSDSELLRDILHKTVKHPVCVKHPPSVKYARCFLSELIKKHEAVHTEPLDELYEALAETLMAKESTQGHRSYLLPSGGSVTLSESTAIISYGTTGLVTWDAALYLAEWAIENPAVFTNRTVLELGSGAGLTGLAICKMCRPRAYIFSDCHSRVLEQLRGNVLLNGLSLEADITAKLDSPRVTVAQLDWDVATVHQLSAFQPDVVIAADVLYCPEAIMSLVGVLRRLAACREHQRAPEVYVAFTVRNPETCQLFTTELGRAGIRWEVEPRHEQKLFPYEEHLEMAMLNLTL
Experimental: in vitro methylation, autoradiography on FA[…] | incubating recombinant, purified FA[…] with recombinant, purified EEF2 in the presence of radiolabeled SAM

FAM86A [2] = molecular target: T2, FAM86A (Homo sapiens, UniProt Q96G04, A97R); experiment: in vitro methylation, autoradiography; assay type: biochemical; details: labelled compound; methyl donor; co-substrate recombinant human EEF2 (Lys525); Tris-HCl pH 8.0, 20 mM KCl, 5 mM MgCl2, 10% glycerol, 30 C overnight
T2 construct: gene EEF2KMT; full-length; E. coli BL21
T2 sequence (Q96G04 1-330 A97R): T1 sequence (Q96G04 1-330) with A97R

FAM86A [3] = molecular target: T3, FAM86A (Homo sapiens, UniProt Q96G04, I256Y/M257Y/E296Y); experiment: X-ray crystal structure, […] A; details: co-crystallised with 1 mM SAH, ammonium citrate pH 7.0, PEG 3350, 5 mM TCEP, 12 C; SAM-binding site of MTase domain
T3 construct: gene EEF2KMT; full-length, surface-entropy-reduction triple mutant; N-terminal His6-MBP tag removed by TEV; E. coli BL21(DE3) RIL; residues 1-5 and 127-133 not traced
T3 sequence (Q96G04 1-330 I256Y/M257Y/E296Y): T1 sequence (Q96G04 1-330) with I256Y, M257Y, E296Y

C[S+](CC[C@H](N)C(=O)O)C[C@H]1O[C@@H](n2cnc3c(N)ncnc32)[C@H](O)[C@@H]1O (stereo partly drawn) [SAM, S-adenosyl methionine]
in vitro methylation, autoradiography (FAM86A [1]): incubating recombinant, purified FAM86A with recombinant, purified EEF2 in the presence of radiolabeled SAM
in vitro methylation, autoradiography (FAM86A [2]): the activity of purified FAM86A (A97R) on purified EEF2 was similar to that of wildtype

Nc1ncnc2c1ncn2[C@@H]1O[C@H](CSCC[C@H](N)C(=O)O)[C@@H](O)[C@H]1O [SAH, S-adenosyl homocysteine]
X-ray crystal structure, 3.3 A (FAM86A [3]): structure determination of full-length FAM86A in complex with cofactor–by-product S-adenosyl homocysteine (SAH)
